Measurements: US12351819B2, “Method for removing undifferentiated pluripotent stem cells” (priority 2017, dated 2025)

How the values were obtained:
Format in all cases: cell-based, human
[1] = tested on: hBMMSCs; assay: Osteogenic differentiation and Alizarin Red S staining; conditions: 2.5 μM 24 hours, drug removed; Alizarin Red S O.D 570 nm
Experimental: Drugs were removed, and the cells were washed with PBS and cultured in MSCgo™ Osteogenic Differentiation medium (Biological Industries, Kibbutz Beit-Haemek, Israel)^31. The media changed twice per week for 14-21 days. Next, the cells were fixed with ice-cold 70% ethanol at −20° C. for 1 hour. After washing with water for three times, the cells were then stained with 40 mM Alizarin Red S (ARS) (pH 4.2) at room temperature for 10 minutes. The cells were then washed with PBS for five times. An Olympus CK-40 microscope was used to take the images. For quantification, the dye was extracted with 10% (w/v) cetylpyridinium chloride (Sigma 0732) in sodium phosphate buffer (pH 7.0) for 15 minutes, and the O.D. at 570 nm was measured.

[2] = tested on: hESC-hepatocyte endoderm cells; assay: LDH cytotoxicity assay in hESC-derived hepatocyte endoderm; conditions: Table 1
Experimental: This protocol followed a method previously published in Nature Protocols^36. The hESCs were detached by 0.5 mM EDTA (Life Technologies, Camarillo, C, USA), seeded on VTN-N coated culture plates (Corning) and maintained for 48 hours in mTeSR 1 medium. Then, the medium was refreshed daily for all following steps. On days 1-2, the medium was replaced with fresh CDM-PVA (consisting of 0.5 g of PVA (Sigma) dissolved in 250 ml of IMDM/F-12, GlutaMAX (Invitrogen), 250 ml of IMDM (Invitrogen), 5 ml of chemically defined lipid concentrate (Invitrogen), 20 of thioglycerol 97% (Sigma), 350 of insulin (10 mg/ml; Roche), 250 of transferrin (30 mg/ml; Roche) plus Activin A (100 ng/ml; R&D), bFGF (80 ng/ml; R&D), BMP4 (10 ng/ml; R&D), and […] of LY-294002 (Promega). On day 3, the cells were differentiated in RPMI Medium supplemented with Activin A (100 ng/ml) and bFGF (80 ng/ml). On days 4-6, the cells were expanded in RPMI medium supplemented with Activin A (50 ng/ml). On day 7, the cells were passaged and re-plated 105,000 cells/cm^2 cells in VTN-N coated culture plates in RPMI containing Activin A (50 ng/ml) and Y-27632 2HCl (10 μM Selleck-chem, Houston, TX, USA and Munich, Germany). Then, the cells were maintained in RPMI+Activin A (50 ng/ml) on days 8-11. The cells were differentiated into the hepatocyte endoderm and analyzed following the drug treatments. The expression of alpha-fetoprotein (A0008, Dako, Santa Clara, CA, USA) was analyzed in the hepatocyte endoderm via immunofluorescence staining.

[3] = tested on: hBMMSCs; assay: Adipogenesis and Oil Red O assay; conditions: 2.5 μM 24 hours, drug removed; oil red O.D 510 nm
Experimental: Next, drugs were removed, and the cells were cultured in MSCgo™ Adipogenic Differentiation Medium (Biological Industries). The media was changed every 3-4 days for 8-12 days. After the adipogenic induction, we replaced the MSCgo™ Adipogenic complete medium with MSC maintenance medium for 6-9 days. The cells were carefully fixed with 4% formaldehyde for 1 hour at room temperature, washed with 60% isopropanol, and air-dried. The lipid drops were stained with Oil Red O working solution (30 ml 0.35% oil red solution in isopropanol diluted with 20 ml of distilled water) for 10 minutes. Next, the cells were washed with water 4 times. For quantification, Oil Red O stain was extracted with 100% isopropanol, and the absorbance at 510 nm was detected.

[4] = tested on: cleaved PARP, caspase3, caspase7 in hESC-MSCs; assay: Western blot of apoptotic markers, hESC-MSCs; conditions: 2.5 μM, 12 hours
Experimental: RIPA buffer was used to harvest cell lysates (RIPA buffer: NaCl 150 mM, Tris pH 8.0 50 mM, EDTApH 8.0 5 mM, NP-40 1.0%, SDS 0.5%, sodium deoxycholate 0.1%). Western blot analyses were performed as previously described with different types of primary antibodies^29. The primary antibody includes anti-β-actin (A5441; Sigma), anti-Oct4 (sc-9081; Santa Cruz Biotechnology, Santa Cruz, CA, USA), anti-Nanog (3580; Cell Signaling Technology, Danvers, MA, USA), apoptosis antibody kit (9915; Cell Signaling Technology), ATP1A1 (3010; Cell Signaling Technology), and ATP1A2 (16836-1-AP; Proteintech™) were used. After reaction at 4° C. overnight, the blots were incubated with goat anti-mouse- or goat anti-rabbit antibody conjugated with horseradish peroxidase (Jackson ImmunoResearch Inc). The chemiluminescent substrate (WBKLS0500; Millipore, Darmstadt, Germany) was used to detect the blots. Fujifilm LAS-4000 (FUJIFILM, Tokyo, Japan) was used to take the images.

CC(=O)O[C@H]1C[C@H](O[C@H]2[C@@H](O)C[C@H](O[C@H]3[C@@H](O)C[C@H](O[C@H]4CC[C@@]5(C)[C@H](CC[C@@H]6[C@@H]5C[C@@H](O)[C@]5(C)[C@@H](C7=CC(=O)OC7)CC[C@]65O)C4)O[C@@H]3C)O[C@@H]2C)O[C@H](C)[C@H]1O[C@@H]1O[C@H](CO)[C@@H](O)[C@H](O)[C@H]1O [Lanatoside C, lanatoside C]
differentiation ability of hBMMSCs into osteoblasts [1]: neither digoxin nor lanatoside C affected the differentiation ability | LDH assay positive, hepatocyte endoderm cells [2]: −/+ (10% positive cells) | differentiation ability of hBMMSCs into adipocytes [3]: neither digoxin nor lanatoside C affected the differentiation ability | cleaved form of apoptosis markers in hESC-MSCs [4]: no cleaved form of the apoptosis markers was detected

C[C@H]1O[C@@H](O[C@H]2[C@@H](O)C[C@H](O[C@H]3[C@@H](O)C[C@H](O[C@H]4CC[C@@]5(C)[C@H](CC[C@@H]6[C@@H]5C[C@@H](O)[C@]5(C)[C@@H](C7=CC(=O)OC7)CC[C@]65O)C4)O[C@@H]3C)O[C@@H]2C)C[C@H](O)[C@@H]1O [Digoxin, digoxin]
differentiation ability of hBMMSCs into osteoblasts [1]: neither digoxin nor lanatoside C affected the differentiation ability | LDH assay positive, hepatocyte endoderm cells [2]: −/+ (10% positive cells) | differentiation ability of hBMMSCs into adipocytes [3]: neither digoxin nor lanatoside C affected the differentiation ability | cleaved form of apoptosis markers in hESC-MSCs [4]: no cleaved form of the apoptosis markers was detected
